The target in assay [1] is T1, semi-synthetic Ribonuclease (PDB ID 1SSC), immobilised as MBP-8xHis-1SSC (Bos taurus, UniProt P61823).
T1 construct: made in house; host or cells: E. coli BL21 (DE3) T1R
T1 sequence (P61823 27-138 limits assumed): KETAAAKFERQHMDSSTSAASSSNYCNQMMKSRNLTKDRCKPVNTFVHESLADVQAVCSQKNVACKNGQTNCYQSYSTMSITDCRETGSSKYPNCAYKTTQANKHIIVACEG
The assay can be described thus: biochemical. Format: binding.

The target in assay [2] is T2, semi-synthetic Ribonuclease (PDB ID 1SSC), MBP-8xHis fusion construct (UniProt P61823 27-138).
T2 construct: also called MBP-8xHis-1SSC; psfRNAseA; source: E. coli BL21 (DE3) T1R, purified (IMAC, size exclusion chromatography)
T2 sequence: T1 sequence (P61823 27-138 limits assumed)
Put plainly: SPR; MBP-8xHis-1SSC immobilised to about 12000 RU by amine coupling on a CM5 chip; peptides as analytes, single-cycle kinetics, 2 nM to 20 uM; 25 °C; HBS-EP+ (10 mM HEPES pH 7.4, 3 mM EDTA, 150 mM NaCl, 0.05% Tween-20); Biacore 8K; 1:1 binding model. The settings on record: both partners purified.

No end group written: not given here.

Regarding PYVPVHFDASV [PYVPVHFDASV], binding in assay [1] was characterised by a dissociation constant (Kd) of 1220 nM.

B1: known peptide binder (11 residues) of the semi-synthetic Ribonuclease, PYVPVHFDASV (peptide)
peptide: PYVPVHFDASV
notes: also called WT; positive control; source: synthetic peptide
As for B1, the Kd in assay [2] turned out to be 1200 nM.

These data come from article PMC12280060, “Design of linear and cyclic peptide binders from protein sequence information” (Communications Chemistry, 2025).
